These results are taken from DBAASP.

The structures appear in SMILES notation. In brackets after ≈: the same amount, converted by molar mass. Several values for one entry are separate records, joined by “and”; a condition that tells them apart may be missing. Equal values may be shown once.

Holding throughout (experiment): ≥ marks a high value that may be exact or a test limit, other limits are often not marked, values filed in µg/mL are converted to µM
Experiment [1] relates to Escherichia coli ATCC 25922.
For experiment [2], the system named is Staphylococcus aureus ATCC BAA-39.
Experiment [3] concerns Klebsiella pneumoniae ATCC 13883.
The subject of experiment [4] is Salmonella enterica subsp. enterica serovar Enteritidis ATCC 13076.
The subject of experiment [5] is Staphylococcus aureus ATCC 43300.
For experiment [6], the system named is Listeria monocytogenes ATCC 19115.
For experiment [7], the system named is Staphylococcus aureus ATCC 25923.
Experiment [8] deals with Enterococcus faecalis ATCC 51299.
For experiment [9], the system named is Staphylococcus cohnii.
Experiment [10] relates to Enterococcus faecalis M4899.
For experiment [11], the system named is Staphylococcus aureus M6784.
Experiment [12] concerns Enterococcus faecium PZAP 95.
In experiment [13] the test system is Staphylococcus warneri.
Experiment [14] has as its system Acinetobacter sp. M13523.
Experiment [15] deals with Klebsiella pneumoniae M5825.
Experiment [16] deals with Escherichia coli M5306.
Experiment [17] concerns Staphylococcus epidermidis M2921.
Experiment [18] has as its system Staphylococcus saprophyticus M2981.
The subject of experiment [19] is Enterococcus gallinarum M2685.
For experiment [20], the system named is Pseudomonas aeruginosa ATCC 27853.
Experiment [21] concerns Staphylococcus hominis M2973.
The subject of experiment [22] is Staphylococcus hominis M2967.
The test system of experiment [23] is Klebsiella pneumoniae M9491.
For experiment [24], the system named is Escherichia coli M9884.
Experiment [25] relates to Enterococcus faecium M2664.
In experiment [26] the test system is Staphylococcus saprophyticus M4070.
For experiment [27], the system named is Klebsiella pneumoniae M9170.
Experiment [28] concerns Acinetobacter sp. M9013.
Experiment [29] relates to Escherichia coli PCOS 15.
The subject of experiment [30] is Staphylococcus aureus P33.
Experiment [31] has as its system Klebsiella pneumoniae PFAV 3.
The subject of experiment [32] is Staphylococcus aureus P204.
Experiment [33] relates to Enterococcus faecalis M6534.
Experiment [34] relates to Acinetobacter sp. M9665.
Experiment [35] relates to Pseudomonas aeruginosa PACO12.
The subject of experiment [36] is Staphylococcus haemolyticus M2976.
Experiment [37] concerns Enterococcus gallinarum M2723.
The subject of experiment [38] is Staphylococcus epidermidis M2923.
The subject of experiment [39] is Enterococcus faecalis ATCC 29212.
For experiment [40], the system named is Acinetobacter sp. M5949.
The test system of experiment [41] is Klebsiella pneumoniae M13540.
For experiment [42], the system named is Escherichia coli W160-37.
Experiment [43] deals with Candida albicans ATCC 37092.
The test system of experiment [44] is Staphylococcus aureus ATCC 29213.

As usually defined, the MIC is the smallest concentration in the dilution series that meets the test's criterion for growth inhibition. Read a high MIC as a less susceptible organism. Turning to `CC[C@H](C)[C@H](NC(=O)[C@H](CCCCN)NC(=O)[C@H](CCCN=C(N)N)NC(=O)[C@H](CC(C)C)NC(=O)[C@H](Cc1ccccc1)NC(=O)[C@H](CCCN=C(N)N)NC(=O)CNC(=O)[C@H](Cc1ccccc1)NC(=O)[C@H](CCCN=C(N)N)NC(=O)CNC(=O)[C@H](CCCN=C(N)N)NC(=O)[C@H](CCC(N)=O)NC(=O)[C@@H](NC(=O)[C@@H](N)CC(C)C)C(C)C)C(=O)O` [LVQRGRFGRFLRKI], the MIC in [1] was 22.6 µM and 32 µM; in experiment [2], at least 32 µM; in experiment [3], 16 µM and ≥ 32 µM; in experiment [4] it was 16 µM (≈ 27.9 µg/mL); in experiment [5] it was 32 µM (≈ 55.9 µg/mL); in experiment [6], 22.6 µM and ≥ 32 µM. For the same compound, the MIC in experiment [7] is 11.3 µM and 32 µM.
In the case of `CC[C@H](C)[C@H](NC(=O)[C@H](CCCN=C(N)N)NC(=O)[C@H](CCCCN)NC(=O)[C@H](Cc1ccccc1)NC(=O)[C@H](CCC(=O)O)NC(=O)[C@H](CCCCN)NC(=O)[C@H](Cc1c[nH]c2ccccc12)NC(=O)[C@H](CCCCN)NC(=O)[C@H](CCCCN)NC(=O)[C@H](CC(C)C)NC(=O)[C@H](Cc1c[nH]c2ccccc12)NC(=O)[C@H](CCCCN)NC(=O)[C@H](CCCCN)NC(=O)[C@H](CC(C)C)NC(=O)[C@H](CC(C)C)NC(=O)CN)C(=O)N[C@H](C(=O)NCC(=O)N[C@@H](Cc1ccc(O)cc1)C(N)=O)C(C)C` [GLLKKWLKKWKEFKRIVGY], the MIC is at least 106 µM in experiment [8]; 13.2 µM (≈ 32 µg/mL) in experiment [1]; 6.61 µM (≈ 16 µg/mL) in experiment [9]; at least 52.9 µM in [10]; 13.2 µM (≈ 32 µg/mL) in experiment [11]; 6.61 µM (≈ 16 µg/mL) in experiment [12]. Besides, the minimum inhibitory concentration (MIC) in [13] was 3.3 µM (≈ 8 µg/mL); in [14], 1.65 µM (≈ 4 µg/mL); in [15] it was 3.3 µM (≈ 8 µg/mL); in experiment [16] it was 1.65 µM (≈ 4 µg/mL); in [17], 3.3 µM (≈ 8 µg/mL); in experiment [18], 3.3 µM (≈ 8 µg/mL). Further, the MIC in experiment [19] was found to be 6.61 µM (≈ 16 µg/mL); in [20] it was 26.4 µM (≈ 64 µg/mL); in experiment [21] it was 1.65 µM (≈ 4 µg/mL); in experiment [22] it was 3.3 µM (≈ 8 µg/mL); in experiment [23] it was 26.4 µM (≈ 64 µg/mL); in [24], 13.2 µM (≈ 32 µg/mL). The minimal inhibitory concentration (MIC) is 3.3 µM (≈ 8 µg/mL) in experiment [25]; 13.2 µM (≈ 32 µg/mL) in [26]; 26.4 µM (≈ 64 µg/mL) in [7]; 13.2 µM (≈ 32 µg/mL) in experiment [27]; 3.3 µM (≈ 8 µg/mL) in experiment [28]; 26.4 µM (≈ 64 µg/mL) in [29]. The MIC in experiment [30] is at least 52.9 µM; in [31], at least 52.9 µM; in experiment [32], 26.4 µM (≈ 64 µg/mL); in experiment [33], at least 106 µM; in [34] it was 13.2 µM (≈ 32 µg/mL); in experiment [35], 26.4 µM (≈ 64 µg/mL). Further, the MIC was 3.3 µM (≈ 8 µg/mL) in experiment [36]; 13.2 µM (≈ 32 µg/mL) in [37]; 6.61 µM (≈ 16 µg/mL) in experiment [38]; 52.9 µM (≈ 128 µg/mL) in experiment [39]; 6.61 µM (≈ 16 µg/mL) in experiment [40]; 6.61 µM (≈ 16 µg/mL) in [41].
`CC[C@H](C)[C@H](NC(=O)[C@H](CC(N)=O)NC(=O)[C@@H](NC(=O)[C@@H](NC(=O)[C@H](CCCCN)NC(=O)[C@H](CCC(N)=O)NC(=O)[C@H](CCC(N)=O)NC(=O)[C@H](C)NC(=O)[C@H](CCC(=O)O)NC(=O)[C@H](CCC(=O)O)NC(=O)[C@@H](NC(=O)[C@H](CC(=O)O)NC(=O)[C@H](CCCCN)NC(=O)[C@H](CC(C)C)NC(C)=O)C(C)C)[C@@H](C)CC)[C@@H](C)CC)C(=O)N[C@H](C(=O)N[C@@H](CCCN=C(N)N)C(=O)N[C@@H](CCCN=C(N)N)C(=O)N[C@@H](CC(C)C)C(N)=O)[C@@H](C)CC` [LKDVEEAQQKIINIIRRL]: in experiment [42], the MIC worked out at 22 µM (≈ 48.9 µg/mL).
Regarding `CC(C)C[C@H](NC(=O)[C@@H](N)CCCN=C(N)N)C(=O)N1CCC[C@H]1C(=O)N[C@@H](CCCN=C(N)N)C(=O)N1CCC[C@H]1C(=O)N[C@@H](CCCN=C(N)N)C(=O)N1CCC[C@H]1C(=O)N[C@@H](CCCN=C(N)N)C(=O)N1CCC[C@H]1C(=O)N[C@@H](CC(C)C)C(=O)N1CCC[C@H]1C(=O)N[C@@H](Cc1ccccc1)C(=O)N1CCC[C@H]1C(=O)N[C@@H](CCCN=C(N)N)C(=O)N1CCC[C@H]1C(=O)NCC(=O)O` [RLPRPRPRPLPFPRPG], the minimal inhibitory concentration (MIC) in [1] is 114 µM (≈ 218 µg/mL); in experiment [43], at least 500 µM; in experiment [44], above 500 µM.
